Measurements from PMC5218480 (PLoS ONE, 2017).

System: MV-4-11 cells
Experiment: Gene expression microarray analysis (Affymetrix PrimeView) and GSEA
Assay type: cell-based, human
Set-up: RFU PODN (11730768_x_at) / Fold change /veh PODN (11730768_x_at) / RFU LINC00158 (11744669_a_at) / Fold change /veh LINC00158 (11744669_a_at) / RFU DUSP10 (11751237_a_at) / Fold change /veh DUSP10 (11751237_a_at) / RFU ID3 (11757404_x_at) / Fold change /veh ID3 (11757404_x_at) / RFU PLEKHG5 (11737974_s_at) / Fold change /veh PLEKHG5 (11737974_s_at) / RFU LRRC4B (11730491_at) / Fold change /veh LRRC4B (11730491_at) / RFU GIMAP4 (11747438_a_at) / Fold change /veh GIMAP4 (11747438_a_at) / RFU KRT8 (11758183_x_at) / Fold change /veh KRT8 (11758183_x_at) / RFU CNN1 (11734310_a_at) / Fold change /veh CNN1 (11734310_a_at) / RFU VPS37D (11726825_at) / Fold change /veh VPS37D (11726825_at) / RFU C10orf10 (11716522_x_at) / Fold change /veh C10orf10 (11716522_x_at) / RFU KIR2DL2 /// KIR2DL4 /// KIR2DL5A /// KIR2DL5B /// KIR2DS1 /// KIR2DS2 /// KIR2DS3 /// KIR2DS4 /// KIR3DL3 /// KIR3DL3 /// KIR3DS1 (11738374_at) / Fold change /veh KIR2DL2 /// KIR2DL4 /// KIR2DL5A /// KIR2DL5B /// KIR2DS1 /// KIR2DS2 /// KIR2DS3 /// KIR2DS4 /// KIR3DL3 /// KIR3DL3 /// KIR3DS1 (11738374_at) / RFU C1QL1 (11718748_at) / Fold change /veh C1QL1 (11718748_at) / RFU TMPRSS4 (11747572_a_at) / Fold change /veh TMPRSS4 (11747572_a_at) / RFU HAMP (11756126_x_at) / Fold change /veh HAMP (11756126_x_at) / RFU RNFT2 (11725882_a_at) / Fold change /veh RNFT2 (11725882_a_at) / RFU NR4A2 (11747474_a_at) / Fold change /veh NR4A2 (11747474_a_at) / RFU ABCC12 (11746883_a_at) / Fold change /veh ABCC12 (11746883_a_at) / RFU TMEM136 (11760407_x_at) / Fold change /veh TMEM136 (11760407_x_at) / RFU CLDN22 /// WWC2 (11732394_at) / Fold change /veh CLDN22 /// WWC2 (11732394_at) / RFU HLA-DPB1 (11760878_x_at) / Fold change /veh HLA-DPB1 (11760878_x_at) / RFU SPINT1 (11716480_a_at) / Fold change /veh SPINT1 (11716480_a_at) / RFU GAP43 (11754022_s_at) / Fold change /veh GAP43 (11754022_s_at) / RFU A4GNT (11735810_at) / Fold change /veh A4GNT (11735810_at) / RFU PRB3 (11715151_x_at) / Fold change /veh PRB3 (11715151_x_at) / RFU TUBB4B (11761932_at) / Fold change /veh TUBB4B (11761932_at) / RFU CAPN14 (11732068_a_at) / Fold change /veh CAPN14 (11732068_a_at) / RFU TMCC2 (11721928_a_at) / Fold change /veh TMCC2 (11721928_a_at) / RFU IRGQ (11745062_a_at) / Fold change /veh IRGQ (11745062_a_at) / RFU FAM174B (11720279_a_at) / Fold change /veh FAM174B (11720279_a_at) / RFU TMPRSS4 (11748680_a_at) / Fold change /veh TMPRSS4 (11748680_a_at) / RFU FAM212B (11763350_a_at) / Fold change /veh FAM212B (11763350_a_at) / RFU PLEKHG5 (11743358_a_at) / Fold change /veh PLEKHG5 (11743358_a_at) / RFU ZSCAN30 (11745921_a_at) / Fold change /veh ZSCAN30 (11745921_a_at) / RFU CMKLR1 (11741424_a_at) / Fold change /veh CMKLR1 (11741424_a_at) / RFU LOC101060620 /// MAPK8IP1 (11723275_at) / Fold change /veh LOC101060620 /// MAPK8IP1 (11723275_at) / RFU SPTSSB (11747773_x_at) / Fold change /veh SPTSSB (11747773_x_at) / RFU PRSS12 (11739890_at) / Fold change /veh PRSS12 (11739890_at) / RFU BIN1 (11741810_x_at) / Fold change /veh BIN1 (11741810_x_at) / RFU WNT11 (11732464_a_at) / Fold change /veh WNT11 (11732464_a_at) / RFU C10orf10 (11716521_a_at) / Fold change /veh C10orf10 (11716521_a_at) / RFU C5orf56 (11738089_at) / Fold change /veh C5orf56 (11738089_at) / RFU CYB561 (11721691_x_at) / Fold change /veh CYB561 (11721691_x_at) / RFU ANKRD19P (11752326_a_at) / Fold change /veh ANKRD19P (11752326_a_at) / RFU OR2T12 /// OR2T33 /// OR2T8 (11738714_s_at) / Fold change /veh OR2T12 /// OR2T33 /// OR2T8 (11738714_s_at) / RFU VCAN (11748164_a_at) / Fold change /veh VCAN (11748164_a_at) / RFU JSRP1 (11732532_at) / Fold change /veh JSRP1 (11732532_at) / RFU KRTAP10-11 (11738290_x_at) / Fold change /veh KRTAP10-11 (11738290_x_at) / RFU MYO3A (11730013_a_at) / Fold change /veh MYO3A (11730013_a_at) / RFU EBF3 (11725865_a_at) / Fold change /veh EBF3 (11725865_a_at) / RFU CAMK2N1 (11719241_x_at) / Fold change /veh CAMK2N1 (11719241_x_at) / RFU C5orf56 (11738088_a_at) / Fold change /veh C5orf56 (11738088_a_at) / RFU OLFML3 (11715873_a_at) / Fold change /veh OLFML3 (11715873_a_at) / RFU LOC100653217 /// NTM (11731650_a_at) / Fold change /veh LOC100653217 /// NTM (11731650_a_at) / RFU MAPK11 (11762145_a_at) / Fold change /veh MAPK11 (11762145_a_at) / RFU FIZ1 (11724087_x_at) / Fold change /veh FIZ1 (11724087_x_at) / RFU OASL (11726364_x_at) / Fold change /veh OASL (11726364_x_at) / RFU SOX15 (11748057_x_at) / Fold change /veh SOX15 (11748057_x_at) / RFU CD79A (11719716_a_at) / Fold change /veh CD79A (11719716_a_at) / RFU HIST1H1D (11736915_at) / Fold change /veh HIST1H1D (11736915_at) / RFU CASKIN2 (11723855_a_at) / Fold change /veh CASKIN2 (11723855_a_at) / RFU LOC730098 (11760151_x_at) / Fold change /veh LOC730098 (11760151_x_at) / RFU OR4N2 (11742367_at) / Fold change /veh OR4N2 (11742367_at) / RFU PRRT2 (11749266_a_at) / Fold change /veh PRRT2 (11749266_a_at) / RFU SNX32 (11753110_a_at) / Fold change /veh SNX32 (11753110_a_at) / RFU CDHR5 (11726645_a_at) / Fold change /veh CDHR5 (11726645_a_at) / RFU RCAN1 (11760418_a_at) / Fold change /veh RCAN1 (11760418_a_at) / RFU FAM167A (11723789_a_at) / Fold change /veh FAM167A (11723789_a_at) / RFU FAM26E (11764081_at) / Fold change /veh FAM26E (11764081_at) / RFU ISYNA1 (11749810_s_at) / Fold change /veh ISYNA1 (11749810_s_at) / RFU ACY1 (11761880_at) / Fold change /veh ACY1 (11761880_at) / RFU 11764098_at / Fold change /veh 11764098_at / RFU SAMD14 (11745864_x_at) / Fold change /veh SAMD14 (11745864_x_at) / RFU NPB (11741838_a_at) / Fold change /veh NPB (11741838_a_at) / RFU TMPRSS6 (11731388_a_at) / Fold change /veh TMPRSS6 (11731388_a_at) / RFU KRTAP10-2 (11738614_at) / Fold change /veh KRTAP10-2 (11738614_at) / RFU ARHGAP8 /// PRR5-ARHGAP8 (11727945_x_at) / Fold change /veh ARHGAP8 /// PRR5-ARHGAP8 (11727945_x_at) / RFU KRTAP5-7 /// NADSYN1 (11734609_at) / Fold change /veh KRTAP5-7 /// NADSYN1 (11734609_at) / RFU RASL12 (11751679_a_at) / Fold change /veh RASL12 (11751679_a_at) / RFU CDKN2B (11736163_a_at) / Fold change /veh CDKN2B (11736163_a_at) / RFU PRF1 (11729649_at) / Fold change /veh PRF1 (11729649_at) / RFU, ZNF638 /// ZNF638-IT1 / Fold change vs veh, ZNF638 /// ZNF638-IT1 / RFU, PANK3 / Fold change vs veh, PANK3 / RFU, SH3YL1 / Fold change vs veh, SH3YL1 / RFU, ZEB2 / Fold change vs veh, ZEB2 / RFU, NRIP1 / Fold change vs veh, NRIP1 / RFU, PTTG1IP / Fold change vs veh, PTTG1IP / RFU, CAPN2 / Fold change vs veh, CAPN2 / RFU, MED14 / Fold change vs veh, MED14 / RFU, SNORA58 / Fold change vs veh, SNORA58 / RFU, C1orf63 / Fold change vs veh, C1orf63 / RFU, LRRFIP1 / Fold change vs veh, LRRFIP1 / RFU, NDUFAF7 / Fold change vs veh, NDUFAF7 / RFU, SLC12A2 / Fold change vs veh, SLC12A2 / RFU, IBTK / Fold change vs veh, IBTK / RFU, ESF1 / Fold change vs veh, ESF1 / Fold change vs veh, TMEM50B / RFU, TAOK1 / Fold change vs veh, TAOK1 / RFU, ACBD3 / Fold change vs veh, ACBD3 / RFU, TMA16 / Fold change vs veh, TMA16 / RFU, RWDD3 / Fold change vs veh, RWDD3 / RFU, BCAT1 / Fold change vs veh, BCAT1 / RFU, EDEM3 / Fold change vs veh, EDEM3 / RFU, TMEM33 / Fold change vs veh, TMEM33 / RFU, WDR75 / Fold change vs veh, WDR75 / RFU, AHCTF1 / Fold change vs veh, AHCTF1 / RFU, TFRC / Fold change vs veh, TFRC / RFU, ZDHHC17 / Fold change vs veh, ZDHHC17 / RFU, NOM1 / Fold change vs veh, NOM1 / RFU, ARL8B / Fold change vs veh, ARL8B / RFU, ZBTB11 / Fold change vs veh, ZBTB11 / RFU, TAMM41 / Fold change vs veh, TAMM41 / RFU, KIAA1704 /// LOC100996395 / Fold change vs veh, KIAA1704 /// LOC100996395 / RFU, ING1 / Fold change vs veh, ING1 / RFU, TRMT61B / Fold change vs veh, TRMT61B / RFU, FUBP3 / Fold change vs veh, FUBP3 / RFU, TP53 / Fold change vs veh, TP53 / RFU, TNKS2 / Fold change vs veh, TNKS2 / RFU, ZFP14 / Fold change vs veh, ZFP14 / RFU, ACTR2 / Fold change vs veh, ACTR2 / RFU, PPP3R1 / Fold change vs veh, PPP3R1 / RFU, PIK3R1 / Fold change vs veh, PIK3R1 / RFU, HNRNPA1 / Fold change vs veh, HNRNPA1 / RFU, RNF170 / Fold change vs veh, RNF170 / RFU, ZNF28 / Fold change vs veh, ZNF28 / RFU, RNGTT / Fold change vs veh, RNGTT / RFU, OGT / Fold change vs veh, OGT / RFU, BRD1 / Fold change vs veh, BRD1 / RFU, MARS / Fold change vs veh, MARS / RFU, ZNF655 / Fold change vs veh, ZNF655 / RFU, FAHD1 / Fold change vs veh, FAHD1 / RFU, BDP1 / Fold change vs veh, BDP1 / RFU, LRRCC1 / Fold change vs veh, LRRCC1 / RFU, ARID1A / Fold change vs veh, ARID1A / RFU, ZNF146 / Fold change vs veh, ZNF146 / RFU, ZNF330 / Fold change vs veh, ZNF330 / RFU, GPN3 / Fold change vs veh, GPN3 / RFU, C9orf123 / Fold change vs veh, C9orf123 / RFU, N4BP2L2 / Fold change vs veh, N4BP2L2 / RFU, ARFIP1 / Fold change vs veh, ARFIP1 / RFU, FAM179B / Fold change vs veh, FAM179B / RFU, BCL10 / Fold change vs veh, BCL10 / RFU, UHRF1BP1L / Fold change vs veh, UHRF1BP1L / RFU, BET1 / Fold change vs veh, BET1 / RFU, CNOT2 / Fold change vs veh, CNOT2 / RFU, ZNF268 / Fold change vs veh, ZNF268 / Fold change vs veh, ZNF507 / RFU, DGCR2 / Fold change vs veh, DGCR2 / RFU, WDSUB1 / Fold change vs veh, WDSUB1 / Fold change vs veh, HSP90B1 /// MIR3652 / RFU, ADSS / Fold change vs veh, ADSS / RFU, GK / Fold change vs veh, GK / RFU, ZNF148 / Fold change vs veh, ZNF148 / RFU, TAF9 / Fold change vs veh, TAF9 / RFU, SLC1A5 / Fold change vs veh, SLC1A5 / RFU, SLMO2 / Fold change vs veh, SLMO2 / RFU, ABCC4 / Fold change vs veh, ABCC4 / RFU, LOC101060439 /// RAP1B / Fold change vs veh, LOC101060439 /// RAP1B / RFU, RFX7 / Fold change vs veh, RFX7 / RFU, GTPBP10 / Fold change vs veh, GTPBP10 / RFU, CNEP1R1 / Fold change vs veh, CNEP1R1 / RFU, BIVM-ERCC5 /// ERCC5 / Fold change vs veh, BIVM-ERCC5 /// ERCC5 / RFU, ILF3 / Fold change vs veh, ILF3 / RFU 11762660_at / Fold change /veh 11762660_at / RFU VCAN (11757783_s_at) / Fold change /veh VCAN (11757783_s_at) / RFU DDX43 (11728927_at) / Fold change /veh DDX43 (11728927_at) / RFU KRT8 (11758188_x_at) / Fold change /veh KRT8 (11758188_x_at) / RFU NKD1 (11759106_at) / Fold change /veh NKD1 (11759106_at) / RFU SRD5A1 (11742802_a_at) / Fold change /veh SRD5A1 (11742802_a_at) / RFU TPSAB1 /// TPSB2 (11721975_s_at) / Fold change /veh TPSAB1 /// TPSB2 (11721975_s_at) / RFU GSTM3 (11746129_a_at) / Fold change /veh GSTM3 (11746129_a_at) / RFU IL23R (11737362_x_at) / Fold change /veh IL23R (11737362_x_at) / RFU TMEM51 (11727254_a_at) / Fold change /veh TMEM51 (11727254_a_at) / RFU PIWIL2 (11732686_x_at) / Fold change /veh PIWIL2 (11732686_x_at) / RFU ORM1 (11744905_x_at) / Fold change /veh ORM1 (11744905_x_at) / RFU CCDC152 (11743942_at) / Fold change /veh CCDC152 (11743942_at) / RFU ECM1 (11717891_a_at) / Fold change /veh ECM1 (11717891_a_at) / RFU IL23R (11748794_a_at) / Fold change /veh IL23R (11748794_a_at) / RFU TNFAIP8L3 (11732012_x_at) / Fold change /veh TNFAIP8L3 (11732012_x_at) / RFU MBOAT4 (11741988_at) / Fold change /veh MBOAT4 (11741988_at) / RFU 11764193_at / Fold change /veh 11764193_at / RFU TMEM53 (11763286_at) / Fold change /veh TMEM53 (11763286_at) / RFU MAGEB2 (11727129_at) / Fold change /veh MAGEB2 (11727129_at) / RFU TMEM200A (11744735_a_at) / Fold change /veh TMEM200A (11744735_a_at) / RFU CCDC152 (11751479_a_at) / Fold change /veh CCDC152 (11751479_a_at) / RFU FAM211A (11726209_a_at) / Fold change /veh FAM211A (11726209_a_at) / RFU RGS16 (11746705_a_at) / Fold change /veh RGS16 (11746705_a_at) / RFU VCAN (11755009_s_at) / Fold change /veh VCAN (11755009_s_at) / RFU RHOB (11743442_s_at) / Fold change /veh RHOB (11743442_s_at) / RFU RGS16 (11720943_a_at) / Fold change /veh RGS16 (11720943_a_at) / RFU RGS16 (11720944_at) / Fold change /veh RGS16 (11720944_at) / RFU, VPS4B / Fold change vs veh, VPS4B / RFU, CREB1 / Fold change vs veh, CREB1 / RFU, DNAJC13 / Fold change vs veh, DNAJC13 / RFU, GNAQ / Fold change vs veh, GNAQ / RFU, CDK5R1 / Fold change vs veh, CDK5R1 / RFU, ZRANB3 / Fold change vs veh, ZRANB3 / RFU, CUL4A / Fold change vs veh, CUL4A / RFU, CCNY / Fold change vs veh, CCNY / RFU, UFL1 / Fold change vs veh, UFL1 / RFU, COG3 / Fold change vs veh, COG3 / RFU, DIAPH2 / Fold change vs veh, DIAPH2 / RFU, SKA2 / Fold change vs veh, SKA2 / RFU, AFF3 / Fold change vs veh, AFF3 / RFU, LMF1 / Fold change vs veh, LMF1 / RFU, IPO11 / Fold change vs veh, IPO11 / RFU, DFFB / Fold change vs veh, DFFB / RFU, FOXP1 / Fold change vs veh, FOXP1 / RFU, CARD8 / Fold change vs veh, CARD8 / RFU, STRN3 / Fold change vs veh, STRN3 / RFU, ADK / Fold change vs veh, ADK / RFU, RASSF2 / Fold change vs veh, RASSF2 / RFU, WIPF1 / Fold change vs veh, WIPF1 / RFU, LARP1B / Fold change vs veh, LARP1B / RFU, RASA1 / Fold change vs veh, RASA1 / RFU, RB1 / Fold change vs veh, RB1 / RFU, PPFIA1 / Fold change vs veh, PPFIA1 / RFU, MAT2A / Fold change vs veh, MAT2A / RFU, CCT5 / Fold change vs veh, CCT5 / RFU, WDR92 / Fold change vs veh, WDR92 / RFU, CUX1 / Fold change vs veh, CUX1 / RFU, TTC7A / Fold change vs veh, TTC7A / RFU, TMEM135 / Fold change vs veh, TMEM135 / RFU, DEPTOR / Fold change vs veh, DEPTOR / RFU, CPM / Fold change vs veh, CPM / RFU, DNAJB6 / Fold change vs veh, DNAJB6 / RFU, CACNA2D3 / Fold change vs veh, CACNA2D3 / RFU, DTX4 / Fold change vs veh, DTX4 / RFU, TFCP2 / Fold change vs veh, TFCP2 / RFU, GMCL1 /// GMCL1P1 / Fold change vs veh, GMCL1 /// GMCL1P1 / RFU, AEBP2 / Fold change vs veh, AEBP2 / RFU, SNHG1 /// SNORD22 /// SNORD25 /// SNORD26 /// SNORD27 /// SNORD28 /// SNORD29 /// SNORD31 / Fold change vs veh, SNHG1 /// SNORD22 /// SNORD25 /// SNORD26 /// SNORD27 /// SNORD28 /// SNORD29 /// SNORD31 / Fold change (Aza/veh), C12orf56 (ProbeSet 11735607_a_at) / Fold change (ACY-1035/veh), C12orf56 (ProbeSet 11735607_a_at) / Fold change (Aza/veh), FGFR1OP (ProbeSet 11751329_s_at) / Fold change (ACY-1035/veh), FGFR1OP (ProbeSet 11751329_s_at) / Fold change (Aza/veh), VPS36 (ProbeSet 11739960_a_at) / Fold change (ACY-1035/veh), VPS36 (ProbeSet 11739960_a_at) / RFU SYPL1 (11715823_x_at) / Fold change /veh SYPL1 (11715823_x_at) / RFU IGFBP7 (11715501_s_at) / Fold change /veh IGFBP7 (11715501_s_at) / RFU REEP3 (11722064_at) / Fold change /veh REEP3 (11722064_at) / RFU IGLL1 (11728026_x_at) / Fold change /veh IGLL1 (11728026_x_at): dose or concentration left out as unconfirmed
Settings: MV-4-11 cells, 48 hours

Nc1ncn([C@@H]2O[C@H](CO)[C@@H](O)[C@H]2O)c(=O)n1 [azacitidine]
RFU OR4N2 (11742367_at): 68.76 RFU
